The values that follow come from patent publication US20100075965A1, “PI3 KINASE INHIBITORS AND METHODS OF THEIR USE” (Novartis AG, priority 2006, published 2010).

What is called IC50 is the midpoint of a concentration-inhibition curve. The term EC50 denotes the concentration needed to bring the measured effect to its halfway point.

Like-named read-outs stand apart in the source and are kept apart here.

One experiment addresses PI3 K Alpha (Homo sapiens, UniProt P42336). The experiment is described as follows: PI3 kinase phosphorylation assays (homogenous solution phase, one step solid phase, ATP depletion/KinaseGlo). Format: biochemical.
The next experiment concerns A2780 cells. The experiment is described as follows: Viability assay in A2780 (Cell Titer Glo). It counts as cell-based, human. The settings on record: Homo sapiens. In a few lines: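 A2780 cells (1,000/well, DMEM + 10% FBS) were exposed to 3-fold serial dilutions of compound for 72 hrs at 37° C, 5% CO2. Viable cells were read by Cell Titer Glo luminescence, in duplicate, and EC50 values were derived from the curves.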
In general terms: Cellular ATP, detected with luciferase, serves as a proxy for viable cell number.

For experiment [1], the system named is pSer473-Akt in A2780 cells. The experiment is described as follows: pSer473 Akt assay to monitor PI3K pathway in A2780 cells (MSD). Format: cell-based. The note with it: Homo sapiens. In a few lines: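 A2780 cells (15,000/well, adhered overnight) treated 1 h at 37 °C with compound, then lysed; pSer473-Akt and total Akt measured by MSD electrochemiluminescence. The pSer473/total Akt ratio gave percent inhibition versus DMSO, from which EC50 was derived.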

[2] abbreviates: A2780 cells, read-out: A2780 Cell prolif. EC50.
Where [3] appears, read: A2780 cells, read-out: A2780 pAKT 473 EC50.
Where [4] appears, read: ATP depletion assay, read-out: PI3 K Alpha IC50.
Setting [5] is: A2780 cells, 72 hrs, read-out: A2780 Cell prolif. EC50.
Where [6] appears, read: 1 h, A2780 cells, one hour incubation, read-out: A2780 pAKT473 EC50.
The mark [7] stands for this setting: A2780, read-out: A2780 Cell prolif. EC50.
The mark [8] stands for this setting: A2780, read-out: A2780 pAKT 473 EC50.

PI3 K Alpha, sequence (P42336 whole entry): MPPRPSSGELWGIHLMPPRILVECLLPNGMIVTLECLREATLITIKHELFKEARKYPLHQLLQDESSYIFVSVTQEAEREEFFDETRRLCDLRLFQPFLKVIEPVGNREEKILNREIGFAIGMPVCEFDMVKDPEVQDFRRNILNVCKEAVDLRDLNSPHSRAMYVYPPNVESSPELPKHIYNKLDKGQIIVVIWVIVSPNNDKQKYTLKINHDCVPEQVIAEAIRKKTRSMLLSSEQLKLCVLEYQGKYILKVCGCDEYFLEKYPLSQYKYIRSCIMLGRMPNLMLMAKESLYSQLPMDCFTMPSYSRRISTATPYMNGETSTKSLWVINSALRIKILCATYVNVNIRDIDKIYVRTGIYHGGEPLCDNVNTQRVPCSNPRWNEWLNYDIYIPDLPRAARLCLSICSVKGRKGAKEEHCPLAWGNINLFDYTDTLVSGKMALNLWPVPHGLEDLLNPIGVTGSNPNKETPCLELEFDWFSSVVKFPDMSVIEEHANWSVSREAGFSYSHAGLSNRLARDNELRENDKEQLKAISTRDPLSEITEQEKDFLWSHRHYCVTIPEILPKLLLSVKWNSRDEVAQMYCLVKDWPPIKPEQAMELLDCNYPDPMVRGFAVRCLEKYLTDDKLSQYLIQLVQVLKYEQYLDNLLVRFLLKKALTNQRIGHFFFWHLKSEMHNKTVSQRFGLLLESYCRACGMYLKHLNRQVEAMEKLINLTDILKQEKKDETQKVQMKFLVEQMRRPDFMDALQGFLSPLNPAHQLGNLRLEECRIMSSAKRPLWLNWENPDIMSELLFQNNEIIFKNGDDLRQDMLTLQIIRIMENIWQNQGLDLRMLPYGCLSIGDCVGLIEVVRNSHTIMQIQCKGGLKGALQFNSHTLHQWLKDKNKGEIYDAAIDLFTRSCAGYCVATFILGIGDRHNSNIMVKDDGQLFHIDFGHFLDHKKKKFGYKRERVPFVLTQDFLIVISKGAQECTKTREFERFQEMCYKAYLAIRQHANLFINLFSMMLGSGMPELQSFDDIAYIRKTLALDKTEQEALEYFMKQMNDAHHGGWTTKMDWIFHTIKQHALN
PI3 K Alpha, sequence (P27986 whole entry partner): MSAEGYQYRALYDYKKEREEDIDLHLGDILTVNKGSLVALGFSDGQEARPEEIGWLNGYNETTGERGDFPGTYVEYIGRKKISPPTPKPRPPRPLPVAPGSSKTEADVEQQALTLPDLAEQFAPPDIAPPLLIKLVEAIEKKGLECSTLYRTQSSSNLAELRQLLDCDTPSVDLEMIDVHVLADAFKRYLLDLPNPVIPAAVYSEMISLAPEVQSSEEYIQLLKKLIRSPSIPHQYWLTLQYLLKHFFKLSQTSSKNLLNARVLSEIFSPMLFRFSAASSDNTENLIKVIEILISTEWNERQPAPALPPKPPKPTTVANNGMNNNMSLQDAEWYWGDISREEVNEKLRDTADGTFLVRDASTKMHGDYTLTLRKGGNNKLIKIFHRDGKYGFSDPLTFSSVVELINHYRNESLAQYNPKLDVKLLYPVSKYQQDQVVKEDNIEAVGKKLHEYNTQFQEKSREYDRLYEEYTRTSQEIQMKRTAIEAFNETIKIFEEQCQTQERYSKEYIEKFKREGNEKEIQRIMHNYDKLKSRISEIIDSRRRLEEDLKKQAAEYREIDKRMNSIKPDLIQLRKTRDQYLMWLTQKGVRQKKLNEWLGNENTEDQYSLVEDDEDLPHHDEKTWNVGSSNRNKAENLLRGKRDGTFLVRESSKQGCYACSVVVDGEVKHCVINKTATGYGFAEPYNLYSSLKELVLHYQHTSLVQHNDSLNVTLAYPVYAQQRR

For the compound `CCOCC(=O)Nc1cn2nc(-c3cnc(N)c(C(F)(F)F)c3)ccc2n1` [Example 118, N-(6-(6-amino-5-(trifluoromethyl)pyridin-3-yl)imidazo[1,2-b]pyridazin-2-yl)-2-ethoxyacetamide], the IC50 at PI3 K Alpha (read-out: PI3K Alpha IC50) was below 1000 nM. The figures for the EC50 (in the experiment on A2780 cells (setting [2]); in experiment [1] (setting [3])) were below 10000 nM and below 1000 nM, respectively.
With `CC(=O)Nc1cn2nc(-c3cnc(N)c(-c4ccccc4OC(F)(F)F)c3)ccc2n1` [Example 90, N-(6-(6-amino-5-(2-(trifluoromethoxy)phenyl)pyridin-3-yl)imidazo[1,2-b]pyridazin-2-yl)acetamide], the IC50 on PI3 K Alpha (read-out: PI3K Alpha IC50) was below 1000 nM. For the same compound, the EC50 (with A2780 cells (setting [2]); in experiment [1] (setting [3])) was below 1000 nM each time.
For `CC(=O)Nc1nc2ccc(-c3cnc(N)cc3C)cc2s1` [Example 2-18, N-[6-(6-Amino-4-methyl-pyridin-3-yl)-benzothiazol-2-yl]-acetamide], the half-maximal inhibitory concentration (IC50) on PI3 K Alpha (setting [4]) is below 1000 nM. Moreover, the EC50 in the experiment with A2780 cells (setting [5]) was below 25000 nM; in experiment [1] (setting [6]), below 10000 nM.
For `CC(=O)Nc1nc2ccc(-c3cnc(N)c(OCC(F)(F)F)n3)cc2s1` [Example 2-37, N-(6-(5-amino-6-(2,2,2-trifluoroethoxy)pyrazin-2-yl)benzo[d]thiazol-2-yl)acetamide], in that order: below 1000 nM, below 1000 nM and below 1000 nM.
`CC(=O)Nc1cn2cc(-c3cnc(N)c(OC4CN(C(=O)c5ccccc5)C4)n3)ccc2n1` [Example 128, N-(6-(5-amino-6-(1-benzoylazetidin-3-yloxy)pyrazin-2-yl)imidazo[1,2-a]pyridin-2-yl)acetamide]: the IC50 on PI3 K Alpha (read-out: PI3K Alpha IC50) was below 1000 nM. Also, the figures for the EC50 (in the experiment on A2780 cells (setting [2]); in experiment [1] (setting [3])) were below 10000 nM and below 1000 nM, respectively.
As for `CC(=O)Nc1cn2cc(-c3cnc(N)c(C)c3)ccc2n1` [Example 208, N-(6-(6-amino-5-methylpyridin-3-yl)imidazo[1,2-a]pyridin-2-yl)acetamide], the IC50 at PI3 K Alpha (read-out: PI3K Alpha IC50) is below 1000 nM. The EC50 in the experiment on A2780 cells (setting [2]) is below 10000 nM; in experiment [1] (setting [3]), below 1000 nM.
`Nc1ccc(-c2ccc3nc(NC(=O)CCCN4CCOCC4)sc3c2)cn1` [Example 2-10, N-[6-(6-Amino-pyridin-3-yl)-benzothiazol-2-yl]-4-morpholin-4-yl-butyramide]: the IC50 at PI3 K Alpha (setting [4]) is below 1000 nM. For the same compound, the EC50 was below 25000 nM in the experiment with A2780 cells (setting [5]) and below 1000 nM in experiment [1] (setting [6]).
Consider `COc1cc(-c2ccc3nc(NC(C)=O)c(Br)n3c2)cnc1N` [Example 8, N-[6-(6-Amino-5-methoxy-pyridin-3-yl)-3-bromo-imidazo[1,2-a]pyridin-2-yl]-acetamide], for which, on PI3 K Alpha (read-out: PI3K Alpha IC50), the IC50 was below 1000 nM. The EC50 in the experiment with A2780 cells (setting [2]) was below 10000 nM; in experiment [1] (setting [3]) it was below 1000 nM.
Regarding `CC(=O)Nc1cn2nc(-c3cnc(N)c(Cl)c3)ccc2n1` [Example 87, N-(6-(6-amino-5-chloropyridin-3-yl)imidazo[1,2-b]pyridazin-2-yl)acetamide], at PI3 K Alpha (read-out: PI3K Alpha IC50), the IC50 was below 1000 nM. The EC50 (in the experiment on A2780 cells (setting [2]); in experiment [1] (setting [3])) was below 1000 nM in each case.
`CC(=O)Nc1cn2cc(-c3cnc(N)c(/C=N/Nc4ccccc4)c3)ccc2n1` [Example 58, (E)-N-(6-(6-amino-5-((2-phenylhydrazono)methyl)pyridin-3-yl)imidazo[1,2-a]pyridin-2-yl)acetamide]: on PI3 K Alpha (read-out: PI3K Alpha IC50), the IC50 was below 1000 nM. In addition, the EC50 in the experiment with A2780 cells (setting [2]) was below 1000 nM; in experiment [1] (setting [3]), below 10000 nM.
Take `Nc1ncc(-c2ccc3nc(NC(=O)CCCN4CCCCC4)cn3n2)cc1C(F)(F)F` [Example 71, N-(6-(6-amino-5-(trifluoromethyl)pyridin-3-yl)imidazo[1,2-b]pyridazin-2-yl)-4-(piperidin-1-yl)butanamide]: the IC50 at PI3 K Alpha (read-out: PI3K Alpha IC50) was below 1000 nM. Besides, the EC50 (with A2780 cells (setting [2]); in experiment [1] (setting [3])) was below 1000 nM in each case.
With `COc1nc(-c2ccc3nc(NC(C)=O)cn3n2)cnc1N` [Example 130, N-(6-(5-amino-6-methoxypyrazin-2-yl)imidazo[1,2-b]pyridazin-2-yl)acetamide], the IC50 on PI3 K Alpha (read-out: PI3K Alpha IC50) was below 1000 nM. The concentration giving a half-maximal response (EC50) in the experiment with A2780 cells (setting [2]) is below 10000 nM; in experiment [1] (setting [3]), below 1000 nM.
In the case of `Nc1ncc(-c2ccc3nc(NC(=O)c4ccc(N5CCNCC5)nc4)cn3c2)cc1C(F)(F)F` [Example 126, N-(6-(6-amino-5-(trifluoromethyl)pyridin-3-yl)imidazo[1,2-a]pyridin-2-yl)-6-(piperazin-1-yl)nicotinamide], at PI3 K Alpha (read-out: PI3K Alpha IC50), the IC50 was below 1000 nM. Moreover, the results for the EC50 (in the experiment with A2780 cells (setting [2]); in experiment [1] (setting [3])) were below 10000 nM and below 1000 nM, respectively.
Take `CC(=O)Nc1cn2cc(-c3cnc(N)c(F)c3)ccc2n1` [Example 28, N-[6-(6-Amino-5-fluoro-pyridin-3-yl)-imidazo[1,2-a]pyridin-2-yl]-acetamide]: on PI3 K Alpha (read-out: PI3K Alpha IC50), the IC50 was below 1000 nM. The values for the EC50 (in the experiment on A2780 cells (setting [2]); in experiment [1] (setting [3])) were below 25000 nM and below 1000 nM, respectively.
In the case of `Nc1ncc(-c2ccc3nc(NC(=O)C4CNC4)cn3n2)cc1C(F)(F)F` [Example 116, N-(6-(6-amino-5-(trifluoromethyl)pyridin-3-yl)imidazo[1,2 b]pyridazin-2-yl)azetidine-3-carboxamide], at PI3 K Alpha (read-out: PI3K Alpha IC50), the IC50 is below 1000 nM. Moreover, the concentration giving a half-maximal response (EC50) was below 10000 nM with A2780 cells (setting [2]) and below 1000 nM in experiment [1] (setting [3]).
Consider `CC(=O)Nc1nc2ccc(-c3cnc(N)c(CN(C)C)c3)cc2s1` [Example 2-25, N-[6-(6-Amino-5-dimethylamino-methyl-pyridin-3-yl)-benzothiazol-2-yl]-acetamide], for which the IC50 at PI3 K Alpha (setting [4]) was below 1000 nM. Moreover, the EC50 in the experiment with A2780 cells (setting [5]) is below 10000 nM; in experiment [1] (setting [6]), below 1000 nM.
As to `CC(=O)Nc1nc2ccc(-c3cnc(N)c(F)c3)cc2s1` [Example 2-6, N-[6-(6-Amino-5-fluoro-pyridin-3-yl)-benzothiazol-2-yl]-acetamide], the IC50 at PI3 K Alpha (setting [4]) was below 1000 nM. Also, the EC50 with A2780 cells (setting [5]) was below 10000 nM; in experiment [1] (setting [6]), below 1000 nM.
The compound `CC(=O)Nc1nc2ccc(-c3cnc(N)c(C(F)(F)F)c3)cn2c1C#Cc1ccncc1` [Example 68, N-(6-(6-amino-5-(trifluoromethyl)pyridin-3-4-ylethynyl)imi-dazo[1,2-a]pyridin-2-yl)acetamide] had a concentration for half-maximal inhibition (IC50) against PI3 K Alpha below 1000 nM. The EC50 (with A2780 cells (setting [7]); in experiment [1] (setting [8])) was below 1000 nM in each case.
Turning to `CC(C)(C)OC(=O)NCC(=O)Nc1cn2nc(-c3cnc(N)c(C(F)(F)F)c3)ccc2n1` [Example 135, tert-butyl 2-(6-(6-amino-5-(trifluoromethyl)pyridin-3-yl)imidazo[1,2-b]pyridazin-2-ylamino)-2-oxoethylcarbamate], the 50% inhibitory concentration (IC50) at PI3 K Alpha (read-out: PI3K Alpha IC50) was below 1000 nM. The EC50 in the experiment on A2780 cells (setting [2]) was below 10000 nM; in experiment [1] (setting [3]) it was below 1000 nM.
In the case of `Nc1ncc(-c2ccc3nc(NC(=O)CO[C@@H]4CCNC4)cn3n2)cc1C(F)(F)F` [Example 69, (R)-N-(6-(6-amino-5-(trifluoromethyl)pyridin-3-yl)imidazo[1,2-b]pyridazin-2-yl)-2-(pyrrolidin-3-yloxy)acetamide], at PI3 K Alpha (read-out: PI3K Alpha IC50), the IC50 was below 1000 nM. The EC50 (in the experiment with A2780 cells (setting [2]); in experiment [1] (setting [3])) was below 1000 nM throughout.
As to `CC(=O)Nc1cn2cc(-c3cnc(N)c(-c4cccc(C(F)(F)F)c4)c3)ccc2n1` [Example 88, N-(6-(6-amino-5-(3-(trifluoromethyl)phenyl)pyridin-3-yl)imidazo[1,2-a]pyridin-2-yl)acetamide], on PI3 K Alpha (read-out: PI3K Alpha IC50), the IC50 is below 1000 nM. The EC50 (in the experiment with A2780 cells (setting [2]); in experiment [1] (setting [3])) was below 1000 nM each time.
As to `COC(=O)Nc1nc2ccc(-c3ccc(N)nc3)cc2s1` [Example 2-3, [6-(6-Amino-pyridin-3-yl)-benzothiazol-2-yl]-carbamic acid methyl ester], the IC50 at PI3 K Alpha (setting [4]) is below 1000 nM. Moreover, the concentration giving a half-maximal response (EC50) in the experiment on A2780 cells (setting [5]) was below 10000 nM; in experiment [1] (setting [6]) it was below 1000 nM.
As for `COCCOc1nc(-c2ccc3nc(NC(=O)COC)cn3c2)cnc1N` [Example 196, N-(6-(5-amino-6-(2-methoxyethoxy)pyrazin-2-yl)imidazo[1,2-a]pyridin-2-yl)-2-methoxyacetamide], at PI3 K Alpha (read-out: PI3K Alpha IC50), the IC50 was below 1000 nM. Also, the values for the EC50 (in the experiment on A2780 cells (setting [2]); in experiment [1] (setting [3])) were below 10000 nM and below 1000 nM, respectively.
Consider `COCCOc1nc(-c2ccc3nc(NC(C)=O)sc3c2)cnc1N` [Example 2-32, N-(6-(5-amino-6-(2-methoxyethoxy)pyrazin-2-yl)benzo[d]thiazol-2-yl)acetamide], for which, on PI3 K Alpha (setting [4]), the IC50 was below 1000 nM. Besides, the figures for the EC50 (in the experiment on A2780 cells (setting [5]); in experiment [1] (setting [6])) were below 10000 nM and below 1000 nM, respectively.
On to `CC(=O)Nc1nc2ccc(-c3cnc(N)c(C(F)(F)F)c3)cn2c1Br` [Example 11, N-[6-(6-Amino-5-trifluoromethyl-pyridin-3-yl)-3-bromo-imidazo[1,2-a]pyridin-2-yl]-acetamide], for which the IC50 at PI3 K Alpha (read-out: PI3K Alpha IC50) is below 1000 nM. Also, the EC50 was below 25000 nM in the experiment on A2780 cells (setting [7]) and below 10000 nM in experiment [1] (setting [8]).
In the case of `COCC(=O)Nc1cn2cc(-c3cnc(N)c(OCC(F)(F)F)n3)ccc2n1` [Example 89], on PI3 K Alpha (read-out: PI3K Alpha IC50), the IC50 was below 1000 nM. Besides, the EC50 (in the experiment on A2780 cells (setting [2]); in experiment [1] (setting [3])) was below 1000 nM in each case.
Turning to `COc1ccc(CC(=O)Nc2cn3cc(-c4cnc(N)c(C(F)(F)F)c4)ccc3n2)cc1OC` [Example 51], the IC50 at PI3 K Alpha (read-out: PI3K Alpha IC50) was below 1000 nM. The figures for the EC50 (in the experiment on A2780 cells (setting [2]); in experiment [1] (setting [3])) were below 10000 nM and below 1000 nM, respectively.
`CC(=O)Nc1cn2nc(-c3cnc(N)c(-c4ccccc4F)c3)ccc2n1` [Example 81, N-(6-(6-amino-5-(2-fluorophenyl)pyridin-3-yl)imidazo[1,2-b]pyridazin-2-yl)acetamide]: the IC50 on PI3 K Alpha (read-out: PI3K Alpha IC50) is below 1000 nM. In addition, the EC50 (with A2780 cells (setting [2]); in experiment [1] (setting [3])) was below 1000 nM throughout.
